Data taken from article PMC8518794 (2021).

What was measured:
[1] = test system: pApU (poly rA–poly rU; polyAU) (RNA, polymer) A/U; test: UV thermal denaturation; conditions: Na+ (sodium cacodylate); pH 7; r[compound]/[polynucleotide] = 0.3; error ±0.5 °C; per base
[2] = test system: pApU (poly rA–poly rU; polyAU) (RNA, polymer) A/U; test: fluorimetric titration, Scatchard / McGhee-von Hippel; conditions: Na+ (sodium cacodylate); pH 7; sodium cacodylate buffer; r fixed at 0.25; compound 1×10^-7 M; per base
[3] = test system: pApU (poly rA–poly rU; polyAU) (RNA, polymer) A/U; test: fluorimetric titration; conditions: Na+ (sodium cacodylate); pH 7; compound 1×10^-7 M; negligible emission change

| ΔTm [1] [°C] | log Ks [2] | binding [3] | SMILES |
| --- | --- | --- | --- |
| 13.0 | 7.8 |  | Cc1cc(C)c(B(c2c(C)cc(-c3ccc(-c4ccc(-c5cc(C)c(B(c6c(C)cc(C)cc6C)c6c(C)cc([N+](C)(C)C)cc6C)c(C)c5)s4)s3)cc2C)c2c(C)cc([N+](C)(C)C)cc2C)c(C)c1 |
| 5.5 | 7.5 |  | Cc1cc(C)c(B(c2c(C)cc(-c3ccc(-c4ccc(-c5cc(C)c(B(c6c(C)cc([N+](C)(C)C)cc6C)c6c(C)cc([N+](C)(C)C)cc6C)c(C)c5)s4)s3)cc2C)c2c(C)cc([N+](C)(C)C)cc2C)c(C)c1 |
| 0 |  | no | Cc1cc(C)c(B(c2c(C)cc(C)cc2C)c2c(C)cc(-c3ccc(-c4ccc(-c5cc(C)c(B(c6c(C)cc(C)cc6C)c6c(C)cc([N+](C)(C)C)cc6C)c(C)c5)s4)s3)cc2C)c(C)c1 |
| 11.1 | 7.0 |  | Cc1cc(C)c(B(c2c(C)cc(C)cc2C)c2c(C)cc(-c3ccc(-c4ccc(-c5cc(C)c(B(c6c(C)cc([N+](C)(C)C)cc6C)c6c(C)cc([N+](C)(C)C)cc6C)c(C)c5)s4)s3)cc2C)c(C)c1 |
